Results on two compounds are retold here after US9949961B2, “Agent for the prophylaxis and/or treatment of neoplastic diseases” (priority 2013, dated 2018).

Molecules are shown by their SMILES.

Data set [1] concerns hepatic tumors induced by DENA. As to the kind of experiment: Preventive effect on hepatic neoplasms induced by N-diethyl nitrosamine (DENA) in rats. It counts as in vivo, male Wistar rats. The following applies: for Preventive effect in relation to hepatic tumors: 25 mg/kg a day, DENA carcinogenesis in rats; for Weight of rats / Number of animals with induced tumors / Number of hepatic tumors: 25 mg/kg/day in drinking water, DENA 30 mg/kg/week i.p.; for Weight of rats: from 3 weeks prior to DENA and then 2.5 months; for Number of animals with induced tumors: 16 animals in group; for Number of hepatic tumors: counted visually on liver surface. Here is the method: The efficacy of preventive effects of Products 1 and 2 in relation to hepatic neoplasms was shown in the experiment on male Wistar rats which were intraperitoneally administered with chemical carcinogen-N-diethyl nitrosamine (DENA) (Nitrosodiethylamin (N—N)). The nature of the invention is explained with the execution example.
To solve the task, 3 groups of male Wistar rats weighing 150-200 g were formed, 16 in each. Rats of the control group were administered intraperitoneally with DENA in dose 30 mg/kg/week. The dosage was administered in 2 doses: Monday and Thursday. The animals of test groups were similarly administered with DENA. Rats of test groups took drinking water in addition to Products 1 and 2 assuming that they took 25 mg/kg of body weight/day with water. The animals started taking the products 3 weeks prior administration of N-diethyl nitrosamine to develop protective background in animal body and subsequently for 2.5 months.
During the experiment, weight of rats was controlled. After autopsy of animals, liver was weighted, tumors were visually counted on its surface and photographed.

For data set [2], the system named is Lewis carcinoma. As to the kind of experiment: Anti-neoplastic and anti-metastatic activity in mice with Lewis carcinoma implanted to the paw. It is filed as in vivo, male mice F1 (CBA×C57B1/6). The following applies: for Number of lung metastases: day 21 after tumor implantation; for Growth of Lewis carcinoma in mice: 5 and 25 mg/kg, inhibition is dose-related. How it is done: The efficacy of anti-neoplastic (anti-proliferative) and anti-metastatic properties of products 1 and 2 was shown in the experiment on male mice F1 (CBA×CS7B1/6) with Lewis carcinoma implanted to the paw following intragastric administration in two doses: 5 mg/kg and 25 mg/kg for 3 weeks immediately after implantation and within 1 week prior tumor transplantation.
Test system. To examine anti-neoplastic (anti-proliferative) and anti-metastatic properties of products 1 and 2, 120 hybrid male mice of the first generation CBA×[…] were used: each group of 10-12 mice. Lewis carcinoma was implanted to a hind paw, in the amount ˜10^6 cells (˜0.2 cm^3) Doses and dosing schemes for products 1 and 2. Route of the product administration—per os provided addition of products 1 and 2 to drinking water which was given to animals. Products 1 and 2 were added to drinking water by two schemes: within 3 weeks immediately after implantation and within 4 weeks with the dosing started prior implantation.
Anti-neoplastic (anti-proliferative) and anti-metastatic activity of products 1 and 2 was assessed based on change of tumor volume and number of lung metastases. The number of metastases was assessed on day 21 after tumor implantation (day 28 after the administration of products 1 and 2 by the 1-st scheme). For that, lungs were withdrawn in animals decapitated under anesthesia and transferred to Bouin's fluid. Metastases were visually counted. The volume of neoplasm was assessed by ellipsoid equation (1). […]
[formula] where: d1, d2, d3—mutually perpendicular tumor sizes.

The test system of data set [3] is neuroblastoma N2A cell culture. Conditions: cited from earlier work.
The mark [4] stands for this setting: 5 mg/kg per os in drinking water, after implantation (scheme 2), day 1.
Where [5] appears, read: 5 mg/kg per os in drinking water, after implantation (scheme 2), day 7.
Where [6] appears, read: 5 mg/kg per os in drinking water, after implantation (scheme 2), day 15.
The mark [7] stands for this setting: 5 mg/kg per os in drinking water, prior and after implantation (scheme 1), day 1.
The mark [8] stands for this setting: 5 mg/kg per os in drinking water, prior and after implantation (scheme 1), day 7.
Setting [9] is: 5 mg/kg per os in drinking water, prior and after implantation (scheme 1), day 15.
[10] abbreviates: 5 mg/kg, after implantation (scheme 2).
Setting [11] is: 5 mg/kg, prior and after implantation (scheme 1).
[12] abbreviates: 25 mg/kg per os in drinking water, after implantation (scheme 2), day 1.
[13] abbreviates: 25 mg/kg per os in drinking water, after implantation (scheme 2), day 7.
Setting [14] is: 25 mg/kg per os in drinking water, after implantation (scheme 2), day 15.
Where [15] appears, read: 25 mg/kg per os in drinking water, prior and after implantation (scheme 1), day 1.
Setting [16] is: 25 mg/kg per os in drinking water, prior and after implantation (scheme 1), day 7.
Setting [17] is: 25 mg/kg per os in drinking water, prior and after implantation (scheme 1), day 15.
Where [18] appears, read: 25 mg/kg, after implantation (scheme 2).
The mark [19] stands for this setting: 25 mg/kg, prior and after implantation (scheme 1).

For `O=C1CSC(=S)N1CCc1ccncc1` [Product 2], the “Preventive effect in relation to hepatic tumors” value in data set [1] is listed as “have preventive effect”. Also, the Weight of rats in data set [1] amounted to 145.9 ± 1.26 g. The “Number of animals with induced tumors” value in data set [1] was 15. Also, the “Number of hepatic tumors” value in data set [1] stood at 16.6 ± 3.12. Moreover, the Tumor volume is 49 ± 15 mm^3 in data set [2] (setting [4]); 702 ± 92 mm^3 in data set [2] (setting [5]); 1806 ± 203 (P < 0.05) mm^3 in data set [2] (setting [6]); 39 ± 13 mm^3 in data set [2] (setting [7]); 706 ± 99 mm^3 in data set [2] (setting [8]); 1588 ± 127 (P < 0.01)^3 mm^3 in data set [2] (setting [9]). Further, the Tumor volume was 70 ± 14 mm^3 in data set [2] (setting [12]); 827 ± 140 mm^3 in data set [2] (setting [13]); 1459 ± 299 (P < 0.01) mm^3 in data set [2] (setting [14]); 98 ± 95 mm^3 in data set [2] (setting [15]); 650 ± 97 mm^3 in data set [2] (setting [16]); 1204 ± 226 (P < 0.01) mm^3 in data set [2] (setting [17]). The “Number of lung metastases” value in data set [2] (setting [10]) is on record as 33.3 ± 7.8; in data set [2] (setting [11]), 43.4 ± 6.5; in data set [2] (setting [18]), 19.0 ± 5.1 (P < 0.01)^3; in data set [2] (setting [19]), 34.2 ± 8.9. In data set [2], the “Growth of Lewis carcinoma in mice” value is “able to inhibit growth”.

With `O=C1CSC(=S)N1CCc1ccccc1` [Product 1], the “Preventive effect in relation to hepatic tumors” value in data set [1] is “have preventive effect”. The same compound came in with a Weight of rats in data set [1] of 146.4 ± 3.57 g. Besides, in data set [1], the “Number of animals with induced tumors” value amounted to 15. Besides, in data set [1], the “Number of hepatic tumors” value is reported as 15.1 ± 2.88. The Tumor volume in data set [2] (setting [4]) is on record as 52 ± 17 mm^3; in data set [2] (setting [5]), 708 ± 86 mm^3; in data set [2] (setting [6]) it was 1826 ± 196 (P < 0.05) mm^3; in data set [2] (setting [7]), 40 ± 15 mm^3; in data set [2] (setting [8]) it was 715 ± 103 mm^3; in data set [2] (setting [9]), 1597 ± 133 (P < 0.01)^2 mm^3. Besides, the Tumor volume was 60 ± 19 mm^3 in data set [2] (setting [12]); 812 ± 153 mm^3 in data set [2] (setting [13]); 1437 ± 325 (P < 0.01) mm^3 in data set [2] (setting [14]); 101 ± 29 mm^3 in data set [2] (setting [15]); 671 ± 104 mm^3 in data set [2] (setting [16]); 1225 ± 214 (P < 0.01) mm^3 in data set [2] (setting [17]). Further, the “Number of lung metastases” value in data set [2] (setting [10]) is reported as 32.8 ± 8.1; in data set [2] (setting [11]), 42.2 ± 7.1; in data set [2] (setting [18]), 20.3 ± 4.2 (P < 0.01)^2; in data set [2] (setting [19]) it was 33.1 ± 9.1. In data set [2], the “Growth of Lewis carcinoma in mice” value is given as “able to inhibit growth”. Besides, the Anti-proliferative effect result in data set [3] is “anti-proliferative effect”.
